Measured values taken from patent publication US20260206753A1, “HERBICIDAL DERIVATIVES” (SYNGENTA CROP PROTECTION AG, priority 2022, published 2026).

How the values were obtained:
Assay type in all cases: in vivo
[1] = test system: Amaranthus palmeri (AMAPA); assay: Pre-emergence herbicide test, glasshouse pots; details: 1000 g/ha, evaluated after 13 days
[2] = test system: Echinochloa crus-galli (ECHCG); assay: Pre-emergence herbicide test, glasshouse pots; details: 1000 g/ha, evaluated after 13 days
[3] = test system: Amaranthus retoflexus (AMARE); assay: Pre-emergence herbicide test, glasshouse pots; details: 1000 g/ha, evaluated after 13 days
Zea mays (ZEAMX) [4] = assay: Post-emergence herbicide test, glasshouse pots; details: sprayed after 8 days cultivation, 1000 g/ha, evaluated after 13 days
Protocol: (§1) Seeds of a variety of test species are sown in standard soil in pots (Setaria faberi (SETFA), Echinochloa crus-galli (ECHCG), Ipomoea hederacea (IPOHE), Amaranthus palmeri (AMAPA), Zea mays (ZEAMX), Amaranthus retoflexus (AMARE), Solanum nigrum (SOLNI), Lolium perenne (LOLPE), Abutilon theophrasti (ABUTH)). After 8 days cultivation under controlled conditions in a glasshouse (at 24° C./16° C., day/night; 14 hours light; 65% humidity), the plants are sprayed with an aqueous spray solution derived from the formulation of the technical active ingredient in acetone/water (50:50) solution containing 0.5% Tween 20 (polyoxyethelyene sorbitan monolaurate, CAS RN 9005-64-5). Compounds are applied at 1000 g/ha unless otherwise stated. The test plants are then grown in a glasshouse under controlled conditions in a glasshouse (at 24° C./16° C., day/night; 14 hours light; 65% humidity) and watered twice daily. After 13 days the test is evaluated for the percentage damage caused to the plant. The biological activities are shown in the following table on a five-point scale (5=81-100%; 4=61-80%; 3=41-60%; 2=21-40%; 1=0-20%).

[5] = test system: Echinochloa crus-galli (ECHCG); assay: Post-emergence herbicide test, glasshouse pots; details: sprayed after 8 days cultivation, 1000 g/ha, evaluated after 13 days
Protocol: as §1

Setaria faberi (SETFA) [6] = assay: Post-emergence herbicide test, glasshouse pots; details: sprayed after 8 days cultivation, 1000 g/ha, evaluated after 13 days
Protocol: as §1

[7] = test system: Ipomoea hederacea (IPOHE); assay: Post-emergence herbicide test, glasshouse pots; details: sprayed after 8 days cultivation, 1000 g/ha, evaluated after 13 days
Protocol: as §1

[8] = test system: Amaranthus palmeri (AMAPA); assay: Post-emergence herbicide test, glasshouse pots; details: sprayed after 8 days cultivation, 1000 g/ha, evaluated after 13 days
Protocol: as §1

[9] = test system: Amaranthus retoflexus (AMARE); assay: Post-emergence herbicide test, glasshouse pots; details: sprayed after 8 days cultivation, 1000 g/ha, evaluated after 13 days
Protocol: as §1

[10] = test system: Ipomoea hederacea (IPOHE); assay: Pre-emergence herbicide test, glasshouse pots; details: 1000 g/ha, evaluated after 13 days
Setaria faberi (SETFA) [11] = assay: Pre-emergence herbicide test, glasshouse pots; details: 1000 g/ha, evaluated after 13 days
Zea mays (ZEAMX) [12] = assay: Pre-emergence herbicide test, glasshouse pots; details: 1000 g/ha, evaluated after 13 days

Row | Compound | AMAPA, percentage damage caused to the plant (five-point scale) [1] | ECHCG, percentage damage caused to the plant (five-point scale) [2] | AMARE, percentage damage caused to the plant (five-point scale) [3] | ZEAMX, percentage damage caused to the plant (five-point scale) (Zea mays (ZEAMX) [4]) | ECHCG, percentage damage caused to the plant (five-point scale) [5] | SEFTA, percentage damage caused to the plant (five-point scale) (Setaria faberi (SETFA) [6]) | IPOHE, percentage damage caused to the plant (five-point scale) [7] | AMAPA, percentage damage caused to the plant (five-point scale) [8] | AMARE, percentage damage caused to the plant (five-point scale) [9] | IPOHE, percentage damage caused to the plant (five-point scale) [10] | SEFTA, percentage damage caused to the plant (five-point scale) (Setaria faberi (SETFA) [11]) | ZEAMX, percentage damage caused to the plant (five-point scale) (Zea mays (ZEAMX) [12])
1 | CCn1cc(-c2ccc(Cl)cc2)c(=O)c(C(=O)O)c1-c1ccc(Cl)c(Cl)c1 [Compound 1, 5-(4-chlorophenyl)-2-(3,4-dichlorophenyl)-1-ethyl-4-oxo-pyridine-3-carboxylic acid] | 1 (1=0-20%) | 5 (5=81-100%) | 0 | 3 (3=41-60%) | 4 (4=61-80%) | 4 (4=61-80%) | 3 (3=41-60%) | 3 (3=41-60%) | 3 (3=41-60%) | 3 (3=41-60%) | 5 (5=81-100%) | 1 (1=0-20%)
2 | CCn1cc(-c2ccc(Cl)cc2F)c(=O)c(C(=O)O)c1-c1ccc(Cl)c(Cl)c1 [Compound 2, 5-(4-chloro-2-fluoro-phenyl)-2-(3,4-dichlorophenyl)-1-ethyl-4-oxo-pyridine-3-carboxylic acid] | 5 (5=81-100%) | 5 (5=81-100%) | 1 (1=0-20%) | 4 (4=61-80%) | 4 (4=61-80%) | 4 (4=61-80%) | 3 (3=41-60%) | 5 (5=81-100%) | 4 (4=61-80%) | 3 (3=41-60%) | 5 (5=81-100%) | 3 (3=41-60%)
3 | CCn1cc(-c2cc(OC(F)(F)F)ccc2F)c(=O)c(C(=O)O)c1-c1ccc(Cl)c(Cl)c1 [Compound 5, 2-(3,4-dichlorophenyl)-1-ethyl-5-[2-fluoro-5-(trifluoromethoxy)phenyl]-4-oxo-pyridine-3-carboxylic acid] | 4 (4=61-80%) | 5 (5=81-100%) | 3 (3=41-60%) | 4 (4=61-80%) | 4 (4=61-80%) | 4 (4=61-80%) | 4 (4=61-80%) | 4 (4=61-80%) | 4 (4=61-80%) | 4 (4=61-80%) | 5 (5=81-100%) | 4 (4=61-80%)
4 | CCn1cc(-c2cc(C(=O)OC(C)C)c(Cl)cc2F)c(=O)c(C(=O)O)c1-c1ccc(Cl)c(Cl)c1 [Compound 6, 5-(4-chloro-2-fluoro-5-isopropoxycarbonyl-phenyl)-2-(3,4-dichlorophenyl)-1-ethyl-4-oxo-pyridine-3-carboxylic acid] | 5 (5=81-100%) | 5 (5=81-100%) | 5 (5=81-100%) | 4 (4=61-80%) | 5 (5=81-100%) | 5 (5=81-100%) | 3 (3=41-60%) | 5 (5=81-100%) | 5 (5=81-100%) | 4 (4=61-80%) | 5 (5=81-100%) | 5 (5=81-100%)
5 | CCn1cc(-c2cc(OC(F)(F)F)ccc2Cl)c(=O)c(C(=O)O)c1-c1ccc(Cl)c(Cl)c1 [Compound 7, 5-[2-chloro-5-(trifluoromethoxy)phenyl]-2-(3,4-dichlorophenyl)-1-ethyl-4-oxo-pyridine-3-carboxylic acid] | 3 (3=41-60%) | 4 (4=61-80%) | 4 (4=61-80%) | 3 (3=41-60%) | 4 (4=61-80%) | 5 (5=81-100%) | 3 (3=41-60%) | 4 (4=61-80%) | 4 (4=61-80%) | 1 (1=0-20%) | 5 (5=81-100%) | 3 (3=41-60%)
6 | CCn1cc(-c2cc(C(=O)OC(C)C)ccc2F)c(=O)c(C(=O)O)c1-c1ccc(Cl)c(Cl)c1 [Compound 8, 2-(3,4-dichlorophenyl)-1-ethyl-5-(2-fluoro-5-isopropoxycarbonyl-phenyl)-4-oxo-pyridine-3-carboxylic acid] | 5 (5=81-100%) | 5 (5=81-100%) | 3 (3=41-60%) | 3 (3=41-60%) | 3 (3=41-60%) | 4 (4=61-80%) | 3 (3=41-60%) | 3 (3=41-60%) | 3 (3=41-60%) | 1 (1=0-20%) | 5 (5=81-100%) | 1 (1=0-20%)
7 | CCn1cc(-c2cccc(OC(F)(F)F)c2F)c(=O)c(C(=O)O)c1-c1ccc(Cl)c(Cl)c1 [Compound 11, 2-(3,4-dichlorophenyl)-1-ethyl-5-[2-fluoro-3-(trifluoromethoxy)phenyl]-4-oxo-pyridine-3-carboxylic acid] | 2 (2=21-40%) | 3 (3=41-60%) | 2 (2=21-40%) | 1 (1=0-20%) | 4 (4=61-80%) | 2 (2=21-40%) | 3 (3=41-60%) | 4 (4=61-80%) | 4 (4=61-80%) | 3 (3=41-60%) | 3 (3=41-60%) | 0
